Patent publication US10092657B2, “Opsonized β-glucan preparations and methods” (Biothera, Inc., priority 2011, dated 2018)

Assays:
human monocytes [1] = test: Binding of PGG β-glucan after serum pre-treatment, monocytes; type: cell-based; details: 10 mM EGTA with or without 10 mM MgCl2; vs untreated serum
Description: (§1) PGG β-glucan at concentration 60-80 mg/mL was incubated with human serum at 1:10 volume ratio for 30 minutes in a 37° C. water bath. The serum-pretreated PGG β-glucan was added to neutrophils at 200 μg/mL or to PBMC at 100 μg/mL resuspended in RPM1 containing either 10% regular autologous serum or 10% HI serum at indicated time and temperature of incubation. Binding was then determined as described previously.
(§2) To determine the role of complement proteins in binding, experiments were performed as described above except for using serum containing 10% HI, compstatin-treated or methylamine (MA)-treated, EGTA- or EGTA+MgCl2 (MgEGTA)-treated, or factor D-blocked serum. Heat-inactivated (HI) serum was prepared by incubating serum in a 56° C. water bath for 30 minutes. […] Treatment of serum with methylamine (MA) was done by incubating serum with 0.67% of methylamine for 2.5 hours at 37° C., followed by three washes with DPBS using Amicon centrifugal filter unit with a 3K MW cut-off (Millipore, Billerica, Mass.). DPBS-treated serum was prepared in the same manner and used as control serum for MA-treated serum. For blocking of factor D in the serum, 166-32 at concentration 20 μg/mL was incubated with serum on ice for 30 minutes, and then used for binding studies. […]

human neutrophils [2] = test: Binding of PGG β-glucan after serum pre-treatment, neutrophils; type: cell-based; details: 10 mM EGTA with or without 10 mM MgCl2; vs untreated serum
Description: as §1, §2

iC3b [3] = target: T1, iC3b (Homo sapiens, UniProt P01024); test: ELISA for iC3b deposition on immobilized PGG β-glucan; type: binding; details: for Effect of serum treatment on iC3b deposition on immobilized β-glucan: methylamine 0.67%, 10 mM EGTA, 10 mM EGTA+10 mM MgCl2
T1 construct: from tissue
Description: PGG β-glucan or dextran was immobilized on wells of a 96-well polystyrene plate (COSTAR, Coming, Inc., Lowell, Mass.) by drying the glucans at 50° C. followed by UV cross-linking. The glucan-coated plate was first blocked with 1% BSA before incubation with untreated serum or serum undergone various treatments as described in binding studies, diluted 1:2 with wash buffer (PBS/0.05% Tween-20) for 30 minutes at 37° C. After washing the serum from the plate, the bound iC3b was probed using the anti-iC3b monoclonal antibody followed by biotin-labeled goat anti-mouse IgG Ab. The amount of immobilized biotin-labeled antibody was determined using streptavidin peroxidase and TMB substrate solution (KPL, Gaithersburg, Md.). OD450 of each well was measured with the spectrophotometer SpectraMAX 250 (Molecular Devices, Sunnyvale, Calif.). Fold change was calculated as OD450 of wells containing immobilized β-glucan divided by OD450 of wells containing no β-glucan, both incubated in the presence of treated or untreated serum.

sC5b-9 complex = test: Measurement of fluid-phase SC5b-9 complex formation in the serum; type: biochemical, human; details: serum treated with 10 mM EGTA with or without 10 mM MgCl2
Description: The MicroVue SC5b-9 EIA kit was used to measure activation of the classical and alternative pathways of complement according to the vendor's instruction (Quidel Corp., San Diego, Calif.). Briefly, the serum, untreated or treated was mixed with PBS, Ab-sensitized sheep RBC (SRBC), or 20 units of CVF and added to plate wells pre-coated with anti-sC5b-9 monoclonal antibody. The plate was incubated at 37° C. for 60 minutes, followed by five washes with the provided wash buffer. The plate was then incubated with the provided SC5b-9 Plus Conjugate, which contained horseradish peroxidase-conjugated Ab specific for sC5b-9 at room temperature for 30 minutes. The plate was washed five times, incubated with the substrate for 15 minutes at room temperature to initiate the enzymatic reaction and subsequently quenched with the stop solution. OD450 Was measured using the spectrophotometer SpectraMAX 250. The concentration of fluid phase sC5b-9 present in the samples was determined from the standard curve generated with the provided sC5b-9 standards.

human monocytes [4] = test: Binding studies on the role of complement proteins in serum, monocytes; type: cell-based; details: for Effect of the agent added to serum or media on binding of PGG β-glucan: compstatin/control peptide 20 or 100 μM, methylamine 0.67%, 166-32 20 μg/mL, HSA 10%
Description: (§3) Heat-inactivated (HI) serum was prepared by incubating serum in a 56° C. water bath for 30 minutes. […] Treatment of serum with methylamine (MA) was done by incubating serum with 0.67% of methylamine for 2.5 hours at 37° C., followed by three washes with DPBS using Amicon centrifugal filter unit with a 3K MW cut-off (Millipore, Billerica, Mass.). DPBS-treated serum was prepared in the same manner and used as control serum for MA-treated serum. For blocking of factor D in the serum, 166-32 at concentration 20 μg/mL was incubated with serum on ice for 30 minutes, and then used for binding studies. For binding experiments in the presence of EGTA or MgEGTA, serum was incubated with 10 mM EGTA with or without 10 mM MgCl2 for 10 minutes at room temperature. The untreated and EGTA/MgEGTA-treated serum was then used to pre-treat PGG and perform binding studies as described earlier.

human neutrophils [5] = test: Binding studies on the role of complement proteins in serum, neutrophils; type: cell-based; details: for Effect of the agent added to serum or media on binding of PGG β-glucan: compstatin/control peptide 20 or 100 μM, methylamine 0.67%, 166-32 20 μg/mL, HSA 10%
Description: as §3

iC3b [6] = target: T1, iC3b; test: Immunoprecipitation of PGG β-glucan with BfD IV and detection of pulled-down iC3b; type: binding; details: glucan incubated with regular serum
Description: PGG β-glucan or dextran at concentration 60-80 mg/mL was incubated with regular or HI serum at 1:10 volume ratio for 30 minutes in a 37° C. water bath. BfD IV Ab was added to the serum/β-glucan mixture and incubated at room temperature for additional 30 minutes. Magnetic beads conjugated with rat anti-mouse IgM (DYNABEADS, Invitrogen, Camarillo, Calif.) were washed three times with DPBS and incubated with serum-PGG β-glucan-BfD IV mixture for another 30 minutes at room temperature. The beads were separated magnetically and iC3b pulled-down along with immunoprecipitated PGG was probed using FITC-conjugated complement C3 Ab by flow cytometer.

human neutrophils [7] = test: Binding of DTAF-labeled PGG β-glucan to human neutrophils, with excess unlabeled competitor; type: cell-based; details: 10 mg/mL unlabeled competitor; 25 μg/mL DTAF-labeled β-glucan
Description: In early optimization experiments, neutrophils, monocytes, and T cells were identified by staining with fluorescently labeled anti-CD 15, anti-CD 14, or anti-CD3 Abs, respectively. Events were collected on a LSRII flow cytometer (BD Biosciences, San Jose, Calif.) and analysis was performed using FLOWJO (Tree Star, Ashland, Oreg.). For assessing binding of DTAF-labeled PGG β-glucan to human neutrophils, 25 βg/mL, 100 μg/mL, or 400 μg/mL of labeled β-glucan was added to neutrophils resuspended in RPMI/10% serum, incubated in a 37° C., 5% CO2 humidified incubator for one hour, washed twice with cold FACS buffer, and fixed with 1% paraformaldehyde. Surface binding of DTAF-conjugated β-glucan was subsequently assessed by flow cytometric analysis.

[8] = 100 μM compstatin-treated serum vs control peptide, C3 blocking, three donors

T1 sequence (P01024 749-1303 limits assumed): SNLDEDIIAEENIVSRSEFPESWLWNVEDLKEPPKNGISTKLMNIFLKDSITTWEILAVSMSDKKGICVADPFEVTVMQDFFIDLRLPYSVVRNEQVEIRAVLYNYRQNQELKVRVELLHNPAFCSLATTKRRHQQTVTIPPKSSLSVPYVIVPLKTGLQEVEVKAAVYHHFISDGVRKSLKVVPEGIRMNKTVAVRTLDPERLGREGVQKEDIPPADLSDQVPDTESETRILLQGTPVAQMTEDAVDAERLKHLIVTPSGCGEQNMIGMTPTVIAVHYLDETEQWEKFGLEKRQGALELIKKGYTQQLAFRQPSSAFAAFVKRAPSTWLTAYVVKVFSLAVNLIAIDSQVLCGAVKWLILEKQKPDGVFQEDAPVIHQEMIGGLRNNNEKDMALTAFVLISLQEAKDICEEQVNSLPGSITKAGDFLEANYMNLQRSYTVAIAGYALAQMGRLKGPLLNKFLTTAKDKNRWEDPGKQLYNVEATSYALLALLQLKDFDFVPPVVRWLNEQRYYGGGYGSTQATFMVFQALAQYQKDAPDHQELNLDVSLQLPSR
T1 sequence (P01024 23-667 partner limits assumed): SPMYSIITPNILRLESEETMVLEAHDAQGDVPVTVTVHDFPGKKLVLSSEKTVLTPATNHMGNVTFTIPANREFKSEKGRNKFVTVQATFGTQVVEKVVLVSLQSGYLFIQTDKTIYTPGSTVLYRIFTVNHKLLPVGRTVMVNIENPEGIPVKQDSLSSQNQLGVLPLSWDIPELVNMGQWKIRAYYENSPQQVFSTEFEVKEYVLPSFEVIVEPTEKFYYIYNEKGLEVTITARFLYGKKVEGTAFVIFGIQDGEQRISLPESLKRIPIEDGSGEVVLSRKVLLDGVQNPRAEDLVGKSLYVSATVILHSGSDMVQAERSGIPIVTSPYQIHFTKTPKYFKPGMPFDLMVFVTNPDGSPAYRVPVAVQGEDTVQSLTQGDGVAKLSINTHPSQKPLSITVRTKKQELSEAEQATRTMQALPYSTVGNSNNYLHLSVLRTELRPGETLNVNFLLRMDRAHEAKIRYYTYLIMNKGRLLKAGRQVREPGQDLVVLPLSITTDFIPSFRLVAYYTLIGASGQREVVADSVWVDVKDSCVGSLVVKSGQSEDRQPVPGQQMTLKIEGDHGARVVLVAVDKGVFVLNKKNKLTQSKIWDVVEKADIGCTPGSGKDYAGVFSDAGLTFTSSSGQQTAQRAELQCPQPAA
T1 sequence (P01024 1321-1663 partner limits assumed): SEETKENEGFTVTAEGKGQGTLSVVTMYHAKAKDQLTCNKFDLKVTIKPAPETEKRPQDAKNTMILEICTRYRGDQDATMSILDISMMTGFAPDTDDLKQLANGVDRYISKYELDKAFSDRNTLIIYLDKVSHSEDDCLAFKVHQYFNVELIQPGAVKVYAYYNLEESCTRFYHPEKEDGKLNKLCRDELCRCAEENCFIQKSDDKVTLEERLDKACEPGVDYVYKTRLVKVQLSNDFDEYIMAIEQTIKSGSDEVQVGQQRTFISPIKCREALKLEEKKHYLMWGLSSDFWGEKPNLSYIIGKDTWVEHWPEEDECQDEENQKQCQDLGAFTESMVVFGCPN

O=C(O)CN(CCOCCOCCN(CC(=O)O)CC(=O)O)CC(=O)O [EGTA]
Rescue of binding to cells in HI serum by PGG β-glucan pre-opsonized in treated serum (human monocytes [1]): rescue of binding was diminished
Rescue of binding to cells in HI serum by PGG β-glucan pre-opsonized in treated serum (human neutrophils [2]): rescue of binding was diminished
Effect of serum treatment on iC3b deposition on immobilized β-glucan (iC3b [3]): completely inhibited
Effect on CVF-activated alternative pathway (sC5b-9 formation) (sC5b-9 complex): completely blocked both the classical and alternative pathways to background levels
Effect on SRBC-activated classical pathway (sC5b-9 formation) (sC5b-9 complex): completely blocked both the classical and alternative pathways to background levels

CC[C@H](C)[C@H](N)C(=O)N[C@H]1CSSC[C@@H](C(=O)N[C@H](C(N)=O)[C@@H](C)O)NC(=O)[C@H](CCCN=C(N)N)NC(=O)[C@H](Cc2cnc[nH]2)NC(=O)[C@H](Cc2cnc[nH]2)NC(=O)CNC(=O)[C@H](Cc2c[nH]c3ccccc23)NC(=O)[C@H](CC(=O)O)NC(=O)[C@H](CCC(N)=O)NC(=O)[C@H](C(C)C)NC(=O)[C@H](C(C)C)NC1=O [compstatin]
Average percentage of inhibition of β-glucan binding (human monocytes [4]; [8]): 80%
Range of percentage of inhibition of β-glucan binding (human monocytes [4]; [8]): 62-92%
Effect of the agent added to serum or media on binding of PGG β-glucan (human monocytes [4]): inhibited binding of β-glucan in a concentration-dependent manner
Average percentage of inhibition of β-glucan binding (human neutrophils [5]; [8]): 95%
Range of percentage of inhibition of β-glucan binding (human neutrophils [5]; [8]): 90-98%
Effect of the agent added to serum or media on binding of PGG β-glucan (human neutrophils [5]): inhibited binding of β-glucan in a concentration-dependent manner

CN [methylamine]
Effect of the agent added to serum or media on binding of PGG β-glucan (human monocytes [4]): abrogated the ability of PGG β-glucan to bind to cells
Effect of the agent added to serum or media on binding of PGG β-glucan (human neutrophils [5]): abrogated the ability of PGG β-glucan to bind to cells
Effect of serum treatment on iC3b deposition on immobilized β-glucan (iC3b [3]): complete inhibition of iC3b deposition

control peptide: control peptide IAVVQDWGHHRAT (SEQ ID NO:2) (control polypeptide)
Effect of the agent added to serum or media on binding of PGG β-glucan (human monocytes [4]): no effect on binding
Effect of the agent added to serum or media on binding of PGG β-glucan (human neutrophils [5]): no effect on binding

dextran [reference compound]
iC3b pulled down with BfD IV immunoprecipitate (iC3b [6]): absence of iC3b
Blocking of DTAF-labeled β-glucan staining by excess unlabeled glucan (human neutrophils [7]): did not block binding
Fold increase of iC3b detected on immobilized glucan compared to background (iC3b [3]; 300 μg/mL immobilized, regular serum 30 minutes at 37° C.): significantly less iC3b detected
